Laboratory results from US11304944B2, “MetAP2 inhibitors and methods of treating obesity” (SynDevRx, Inc., priority 2013, dated 2022).

Tests used:
[1] = tested on: DIO C57Bl6 mice; assay: In vivo testing DIO C57Bl6 mice: weight changes, food consumption, body composition (Compound 16 vs TNP-470); details: for Body Weight Day 33: sc; for Total fat as a percentage of BW / B.W. / Epididymal Fat / Inguinal Fat / Liver / Retroperitoneal Fat / Total Fat: Day 33
Procedure: C57Bl6 male mice (N=6) thirteen weeks old with an average of weight of 34 g were ad libitum fed TD.06414 a high fat diet composed of 60% Kcal from fat (Harlan diet). On study day 1 animals were randomized into groups so that the average weight of each group was 33.9 g. […] Animals were weighed every other day. Food consumption was measured weekly. On day 33 gross pathology was performed to determine body composition.

[2] = tested on: DIO Levin rats; assay: Oral Glucose Tolerance Test (OGTT) Day 48 and HOMA-ir in DIO Levin rats; type: in vivo; details: for Blood Glucose, Time 15 / Blood Glucose, Time 30 / Blood Glucose, Time 60 / Blood Glucose, Time 90 / Blood Glucose, Time 120: OGTT; for BW: at OGTT;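 as to Blood Glucose pre-OGTT: blood glucose in mg/dL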;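 as to Blood Glucose, Time 120: blood glucose in mg/dL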;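 as to Blood Glucose, Time 15: blood glucose in mg/dL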;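 as to Blood Glucose, Time 30: blood glucose in mg/dL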;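 as to Blood Glucose, Time 60: blood glucose in mg/dL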;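 as to Blood Glucose, Time 90: blood glucose in mg/dL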
Procedure: Animals were weighed every other day. Food consumption was measured weekly. On an approximately weekly basis throughout the study, blood samples were taken for assessment of serum chemistries including glucose and insulin. On Day 48 all rats underwent a 4 hour fasted Oral Glucose Tolerance Test (OGTT). Animals were dosed orally (per os, PO) at 8 mL/kg 25% glucose (2 g/kg). On day 68, gross pathology was performed to determine body composition.

[3] = tested on: DIO C57Bl6 mice; assay: Efficacy of various compounds in DIO mouse model (body weight versus time); type: in vivo; details: for BW change vs. vehicle: day 26
Procedure: On study day 1 animals were randomized into groups so that the average weight of the mice in each group was 47 g. The mice were treated with either phosphate buffered saline (vehicle), or compounds as listed in Table 19 dissolved in vehicle (dorsal, subcutaneous administration).

[4] = 0.6 mg/kd (so in the source) q4d sc
[5] = 03 mg/kg (so in the source) q4d sc

## poly[HPMA-co-MA-GFLG-N-(trans-4-aminocyclohexyl)carbamoylfumagillol] [Compound 16]
[1]; 0.5 mg/kg/day, qod
  Body Weight Day 33: 30.4 g
[1]; 1 mg/kg qod
  Total fat as a percentage of BW: 8.2%
[1]; 1.5 mg/kg/day, q4d
  Body Weight Day 33: 27.4 g
[1]; 6 mg/kg q4d
  B.W.: 27.4 grams
  Epididymal Fat: 0.78 grams
  Inguinal Fat: 0.53 grams
  Liver: 1.17 grams
  Retroperitoneal Fat: 0.23 grams
  Total Fat: 1.55 grams
  Total fat as a percentage of BW: 5.6%
[1]; FIG. 1
  degree of weight loss compared with TNP-470: superior to TNP-470 in the degree of weight loss
[1]; FIG. 2
  food consumption compared with TNP-470: causes a greater reduction in food consumption than TNP-470
[1]; q4d dosing regimen (FIG. 1)
  decrease in weight: 19%
[1]; qod (Cmpd 16 1 mg/kg qod)
  B.W.: 30.4 grams
  Epididymal Fat: 1.18 grams
  Inguinal Fat: 0.92 grams
  Liver: 1.10 grams
  Retroperitoneal Fat: 0.42 grams
  Total Fat: 2.52 grams
[2]; 0.3 mg/kg q4d sc
  HOMA-ir (Insulin Sensitivity) 15 min: 40.1
  HOMA-ir (Insulin Sensitivity) 30 min: 10.8
  HOMA-ir (Insulin Sensitivity) Pre-dose: 14.6
[2]; [4]
  Blood Glucose pre-OGTT: 121 mg/dL
  Blood Glucose, Time 15: 150 mg/dL
  Blood Glucose, Time 30: 148 mg/dL
  Blood Glucose, Time 60: 149 mg/dL
  Blood Glucose, Time 90: 143 mg/dL
  Blood Glucose, Time 120: 150 mg/dL
  BW: 662 g
[2]; 1 mg/kg q4d sc
  HOMA-ir (Insulin Sensitivity) 15 min: 50.1
  HOMA-ir (Insulin Sensitivity) 30 min: 18.1
  HOMA-ir (Insulin Sensitivity) Pre-dose: 16.4
[2]; [5]
  Blood Glucose pre-OGTT: 121 mg/dL
  Blood Glucose, Time 15: 156 mg/dL
  Blood Glucose, Time 30: 145 mg/dL
  Blood Glucose, Time 60: 157 mg/dL
  Blood Glucose, Time 90: 149 mg/dL
  Blood Glucose, Time 120: 147 mg/dL
  BW: 697 g
[2]; 3 mg/kg q4d sc
  Blood Glucose pre-OGTT: 120 mg/dL
  HOMA-ir (Insulin Sensitivity) 15 min: 13.7
  HOMA-ir (Insulin Sensitivity) 30 min: 4.6
  HOMA-ir (Insulin Sensitivity) Pre-dose: 9.2
  Blood Glucose, Time 15: 157 mg/dL
  Blood Glucose, Time 30: 144 mg/dL
  Blood Glucose, Time 60: 140 mg/dL
  Blood Glucose, Time 90: 127 mg/dL
  Blood Glucose, Time 120: 129 mg/dL
  BW: 582 g
[2]; 6 mg, q7d sc
  Blood Glucose pre-OGTT: 128 mg/dL
  HOMA-ir (Insulin Sensitivity) 15 min: 37.2
  HOMA-ir (Insulin Sensitivity) 30 min: 3.5
  HOMA-ir (Insulin Sensitivity) Pre-dose: 12.0
  Blood Glucose, Time 15: 161 mg/dL
  Blood Glucose, Time 30: 141 mg/dL
  Blood Glucose, Time 60: 145 mg/dL
  Blood Glucose, Time 90: 145 mg/dL
  Blood Glucose, Time 120: 138 mg/dL
  BW: 604 g
[3]; 2 mg/kg q4d sc
  Group Avg. BW, Study Day 1: 47.0 g
  Group Avg. BW, Study Day 7: 43.4 g
  Group Avg. BW, Study Day 15: 43.2 g
  Group Avg. BW, Study Day 21: 42.0 g
  Group Avg. BW, Study Day 26: 41.7 g
  BW change vs. vehicle: −9.6%
[3]; 12 mg/kg q8d sc
  Group Avg. BW, Study Day 1: 47.0 g
  Group Avg. BW, Study Day 7: 41.3 g
  Group Avg. BW, Study Day 15: 38.3 g
  Group Avg. BW, Study Day 21: 36.2 g
  Group Avg. BW, Study Day 26: 38.0 g
  BW change vs. vehicle: −17.5%
